# Test results taken from a melting point compilation (Tetko et al.; mined from patent text by program, amines drawn as free bases though some values may be those of a salt).
row,SMILES,melting point [°C]
1,CN1CCC(c2c[nH]c3ccc(OCc4ccccc4)cc23)CC1,163 to 164
2,O=C1Nc2ccccc2C1CCCCN1CCN(c2ccc(Cl)cc2)CC1 (stereo unspecified),136 to 137
3,Cc1cccc(C=CCC(C(=O)C=Cc2ccc(Cl)cc2)c2ccccc2)c1 (stereo unspecified),89 to 93
4,Cc1cc(Cl)cc(C(=O)NC2(C)CSC2)c1NC(=O)c1cc(C(F)(F)F)nn1-c1ncccc1Cl,238 to 241
5,CN1CC[C@H](CP(=O)(O)O)C[C@@H]1C(=O)O (relative stereo),256 to 260
6,CCOC(=O)C(Cc1ccc(S(C)=O)cc1)(NC(C)=O)C(=O)OCC (stereo unspecified),135 to 136
7,CCc1ccc2c(c1)C=Cc1cc(C)ccc1C2c1cn(Cc2ccc(C(=O)O)o2)c(=O)[nH]c1=O (stereo unspecified),253
8,CC(=O)Nc1nc(CCc2ccc(CON)cc2)cs1,130
9,CCCC1(CC(=O)O)OCC(=O)c2c1[nH]c1ccccc21 (stereo unspecified),206 to 208
10,CCN(CC)C(=O)n1cnc(S(=O)(=O)CC2CC2)n1,68 to 74
11,O=c1[nH]c2c(cc1S(=O)(=O)c1ccccc1)CCc1cc[nH]c1-2,410
12,CC(C)(C)OC(=O)Nc1ccc(-c2ccc(OC(F)(F)F)cc2)cc1[N+](=O)[O-],145 to 147
13,CN(C)c1ccc(C(=O)OC2CCN(Cc3ccccc3)CC2)cc1,103
14,O=C(Nc1ccc(OCCN2CCOCC2)c2ccccc12)c1cc(N2CCOCC2)ncn1,50 to 51
15,CON=C1C(c2ccccc2)=C(c2ccc(S(C)(=O)=O)cc2)C1(C)C,146 to 147
16,CCOC(=O)C(=CNc1ccc(F)c(F)c1OCC(C)OS(=O)(=O)c1ccc(C)cc1)C(=O)OCC (stereo unspecified),61 to 62
17,Cc1cccc(C=NNC(=O)c2ccc(O)cc2)c1,242
18,CC(=O)OCC(N=O)C(C)(C)Cl (stereo unspecified),117 to 119
19,O=[N+]([O-])/C=C/c1c2n(c3ccccc13)CCNCC2,225 to 226
20,O=C(NOCCO)c1ccc(F)c(F)c1Nc1ccccc1F,130
21,CC(C)Oc1c(C(=O)O)sc(-c2ccccc2)c1Br,159 to 160
22,CCC1CC2C3CCC4=C(CCC(=O)C4)C3=CCC2(CC)C1OC(C)=O (stereo unspecified),123 to 127
23,CCOC(=O)c1cc2c(cn1)[nH]c1ccc(N(C)C)cc12,220 to 221
24,CC(C)(C)OC(=O)N1CCC(OCc2ccccc2)C1CC(=O)Cn1cnc2ccncc2c1=O (stereo unspecified),221
25,CC(c1oc2ccccc2c(=O)c1-c1cccc(F)c1)n1nc(-c2cnc(N)nc2)c2c(N)ncnc21 (stereo unspecified),264 to 268
26,CC(C)CC(CS)C(=O)NCC(=O)NCC(=O)O (stereo unspecified),152 to 156

row,SMILES,melting point [°C]
1,[N-]=[N+]=NCc1nc2ccccc2n1Cc1ccccc1,108 to 110
2,Cc1cccc(C(N)c2ccc(OCCOc3ccc(C(N)c4cccc(C)c4)cc3)cc2)c1 (stereo unspecified),113 to 115
3,COCCCCOc1ccc(OCc2ccccc2)cc1,60 to 61
4,NC(=O)N(O)CC#Cc1ccc(F)c(C2=N[C@H](c3ccccc3)CO2)c1,173 to 174
5,Nc1ccc(Cn2ncnn2)cc1,86 to 87
6,CC(C)(C)OC(=O)c1ccc2c(c1)NCc1ccccc1O2,121 to 123
7,Clc1ccc(Nc2ccc(Br)cn2)cc1,112 to 116
8,O=[N+]([O-])c1ccc2c3c([nH]c2c1)CCCCCC3,119 to 120
9,CCCn1nc2c(NC)nc3ccccc3c2c1N,200 to 201
10,N#CCc1cc(Cl)cc2c(-c3ccc(Cl)cc3)onc12,187 to 190
11,CCCN(C(N)=S)C(c1ccncc1)C1CC1 (stereo unspecified),171
12,CC(C)=NNc1cc2c(nn1)CCN(C(=O)c1ccc(Cl)cc1)C2,221 to 223
13,CC1(C)COC(c2ccc(N)c(N)c2)(c2cccs2)OC1,178
14,CCOC(=O)C1CNc2c(OC)cc(Cc3cnc(N)nc3N)c(OC)c2C1 (stereo unspecified),186 to 188
15,COc1cc(OC)c2c(=O)c(O)c(-c3ccc(OC)c(OC)c3)oc2c1,192 to 194
16,COc1cc(OP(=O)(OC)OC)c(C(=O)c2ccccc2)s1,76
17,O=S(=O)(c1c(-c2cc(Cl)cc(Cl)c2)[nH]c2c(Cl)cc(Cl)cc12)C(F)(F)F,300 to 302
18,Cc1cc(O)ccc1-n1cc(C(=O)O)c(=O)cc1C1CCC(N(C)C)CC1 (stereo unspecified),207 to 215
19,O=C(O)COc1cc(Cl)ccc1C(=O)NCc1cccc(F)c1,155
20,COc1ccc(N2Cc3nc(C(=O)O)nn3-c3cccnc32)cc1,190 to 196
21,N#Cc1cc(N)n(-c2c(Cl)cc(C(F)(F)F)cc2Cl)n1,117 to 118
22,CCOC(=O)C(=O)c1c[nH]c2ccc(Br)cc12,182 to 183
23,CCN(CC)S(=O)(=O)Oc1ccc2c(c1)CCC1C2CCC2(C)C(O)C(O)CC12 (stereo unspecified),121 to 124
24,CCN(CC)CCNC(=O)c1cccc2c(=O)c3c(I)cccc3[nH]c12,144 to 146
25,CCOc1cccc2cc(C(=O)NNS(=O)(=O)c3ccccc3)oc12,223 to 224
26,OCCCCNc1nnc(-c2ccc(F)c(F)c2Nc2ccc(I)cc2F)o1,82 to 83

row,SMILES,melting point [°C]
1,CNc1nc(C)c(-c2nc3ccccc3c(=O)n2-c2cccc(C)c2)s1,> 275
2,COC(=O)c1ccc(OCC(=O)c2cc3cc(C(C)C)ccc3o2)cc1,95 to 97
3,CCn1c(=O)c2nc(-c3ccc(/C=C/C(=O)O)cc3)[nH]c2n(CC)c1=O,> 360
4,CC(C)n1cc(-c2c(-c3ccccc3F)nn3ccncc23)ccc1=O,150 to 151
5,O=C1c2ccccc2-c2nn(CCO)c3ccc(NCCNCCO)c1c23,209 to 211
6,C(=C1COc2ccc3c4c(nnc1c24)C(=Cc1ccccc1)CO3)c1ccccc1,242
7,O=C(Cc1ccc2c(c1)CCC(NS(=O)(=O)c1cccs1)C2)Nc1ccc(C(=O)O)cc1 (stereo unspecified),250 to 252
8,Cc1cc(C(=O)/C=C/C(=O)O)c(C)o1,144 to 147
9,CCS(=O)CCn1nc(-c2cccc(Cl)c2Cl)c(=O)c2cccc(OC)c21 (stereo unspecified),128 to 130
10,c1ccc2oc(-c3ccncc3)nc2c1,129 to 131
11,COC(=O)CC(=O)N1CCC(c2ccc(OC)c(OC3CCCC3)c2)CC1,78 to 79
12,Cc1c(C(=O)O)nnn1Cc1ccccc1Cl,186 to 187
13,O=C(NCCO)c1cccc(-c2cc3c(ccn3Cc3ccc(Cl)cc3Cl)cn2)c1,198 to 199
14,CC(C)(CO)n1cnc2c(N)nc3ccccc3c21,277 to 281
15,Cc1c(CC(F)(F)C(F)(F)C(F)(F)F)c(-c2ccc(S(N)(=O)=O)cc2)c2n1CCC2,221
16,CCOC(=O)c1cn(-c2nc(N)c(Cl)cc2F)c2c(Cl)c(F)c(F)cc2c1=O,186 to 189
17,CC12CCC(C(=O)O)=CC1=CCC1C2CCC2(C)C(C(=O)CCC3CCCCC3)CCC12 (stereo unspecified),247
18,CC(C)C(C(=O)O)N1C(=O)C2C3C=CC(CC3)C2C1=O (stereo unspecified),156
19,CC(=O)N1CC(C)(C)c2cc3nc(-c4ccnnc4)[nH]c3cc21,225 to 260
20,CS(=O)(=O)c1nc(OCc2ccccc2)cc(C(F)(F)F)n1,115 to 118
21,O=C1CCCN1c1ccc(CCN2CCN(c3ccccc3Cl)CC2)cc1,132
22,O=C(O)C12CC=CCC1CSc1ccccc12 (stereo unspecified),152 to 155
23,CCCCOC(=O)Cc1ccc(N[C@@H](CCC(N)=O)C(=O)O)cc1,177 to 179
24,CS(=O)(=O)c1cc(C(F)(F)F)ccc1C(=O)O,156
25,O=C(c1ccc(OCC2CO2)cc1)c1cccc(C(=O)c2ccc(OCC3CO3)cc2)c1 (stereo unspecified),88 to 93
26,COc1cc(Br)c(S(C)(=O)=O)cc1C(=O)O,225 to 258

row,SMILES,melting point [°C]
1,CCOC(=O)c1cnc2c(c1)N(Cc1cc(F)ccc1F)CCN2,124 to 125
2,COc1nc2cccnc2n(-c2ccc(Cl)cc2)c1=O,242 to 243
3,O=C(CCl)Nc1cc(C(=O)NC(CO)CO)cc(C(=O)NC(CO)CO)c1,222 to 224
4,"CN1C(=O)CCC2(C)c3ccc(S(=O)(=O)c4ccccc4)cc3CCC12 (single isomer, unassigned; (+))",165 to 167
5,COc1ccc(C(=CC#N)c2ccc3ccccc3c2)cc1OC,121 to 123
6,CCc1ccc2c3c(ccc2n1)OCC(CN1CC=C(c2c[nH]c4ccccc24)CC1)O3 (stereo unspecified),190
7,CCCc1c(OCc2ccc(C(=O)NCCCCc3cccnc3)c(OCC)c2)ccc(C(C)=O)c1O,92 to 93
8,CCOC(=O)c1ccc(C(F)(F)F)c(N)c1,38 to 39
9,O=C(O)Cn1c(=O)sc2ccc(O)cc21,217 to 221
10,COC(=O)c1cccc(-c2ccc(OC)c3c2CC(C)(C)O3)c1,89 to 91
11,CC(=O)N[C@@H]1CN(C(=O)c2nn(C)c3ccccc23)C[C@@H]1C (relative stereo),202 to 204
12,COCOc1c(C)c(OC)c(OCOC)c(CCCCCc2c(OC)c(OCOC)c(C)c(OC)c2OCOC)c1OC,83 to 84
13,CSC1C(=O)Nc2ccc(-c3ccccc3)cc21 (stereo unspecified),170 to 172
14,O=C(O)[C@H]1O[C@H](c2ccccc2Cl)c2cc(Cl)ccc2N(Cc2ccccc2)C1=O (relative stereo),177
15,O=[N+]([O-])c1cc(C2=Nc3ccccc3SC2)cc(O)c1O,302 to 304
16,Cc1oc(-c2ccccc2)nc1CCOc1ccc(CC2SC(=O)NC2=O)c2sccc12 (stereo unspecified),196 to 197
17,O=c1[nH]c2sccc2c(=O)o1,233
18,CSc1nnc2n1C=Cc1ccccc1C2c1ccccc1 (stereo unspecified),169 to 170
19,Cc1cc(-c2cnn3c(C(F)(F)F)cc(-c4ccc(OCC(F)(F)F)c(C(F)(F)F)c4)nc23)cc(C)n1,229
20,Cc1ccc(S(=O)(=O)OCC2Cc3c(C)c(Cl)cc(C(C)C)c3O2)cc1 (stereo unspecified),103 to 105
21,COc1cccc(Nc2c(N)cc(C(=O)O)cc2S(N)(=O)=O)c1,232 to 234
22,C#CC(O)c1ccc(C(=O)OC)s1 (stereo unspecified),67
23,CC(Cc1c[nH]c2ccccc12)(NCc1cc2ccccc2o1)C(=O)NCc1cccc(O)c1 (stereo unspecified),60 to 69
